Assay results taken from patent publication EP2373670B1, “NOVEL AMINO SUBSTITUTED C-GLYCOSIDE DERIVATIVES AND USE THEREOF AS COSMETIC” (L'Oréal, priority 2008, dated 2010).

Tests used:
Format in all cases: cell-based
kératinocytes [1] = assay: Synthesis of sulfated glycosaminoglycans (radioactive label incorporation) in keratinocyte cultures; conditions: keratinocytes, n=3
From the text: (§1) Etude de l'effet de dérivés C-glycosides sur la synthèse des glycosaminoglycannes sulfatés sur fibroblastes et sur kératinocytes : • L'étude est faite par mesure de l'incorporation de glucosamine radioactive dans la matrice néosynthétisée par des cultures de fibroblastes dermiques humains normaux ou par des kératinocytes. L'incorporation de glucosamine radioactive indique une néosynthèse spécifique de glycosaminoglycannes via une incorporation de la forme acétylée de cette glucosamine.
Les cultures de kératinocytes sont effectuées en milieu Keratinocyte-SFM vendu par la société Gibco , en présence d'EGF (Epidermal Growth Factor) (0,25 ng/ml), d'extrait pituitaire (25 µg/ml) et de gentamycine (25 µg/ml).
(§2) Les fibroblastes et les kératinocytes ont été cultivés en plaques de 96 puits. A confluence, le milieu de culture a été remplacé par du milieu de culture adéquat contenant ou non (témoin) le composé à tester ou la référence, puis les cellules ont été incubées pendant 48 heures. Le marqueur radioactif 35 S-sulfate a été ajouté (40 µCi final) et les cellules ont été incubées pendant 24 heures supplémentaires. Toutes les conditions ont été réalisées 3 fois.
(§3) Les glycosaminoglycanes de la matrice extracellulaire ont été extraits avec un volume tampon chaotropique (Tris/HCl 50 mM, guanidine 4 M, EDTA 5 mM, pH 8,0). Les GAGs sulfatés ont été purifiés par chromatographie d'échanges d'ions : absorption des molécules anioniques sur billes de Q-Sépahrose dans des conditions de forte stringence, désorption des molécules peu et moyennement anioniques avec uns solution urée 6 M NaCl […], puis lavages. La radioactivité incorporée dans les molécules […] restées sur le support (GAGs majoritairement) a été mesurée par scintillation liquide. Les résultats sont évalués par apport à un témoin constitué par des cellules n'ayant pas été traitées avec un composé de formule (I). Un témoin positif (TGFβ à 10 ng/ml) connu pour stimuler la synthèse des GAGs est introduit dans le test effectéu sur fibroblastes comme référence positive. Un témoin positif (CaCl2 à 1,4 mM) connu pour stimuler la synthèse des GAGs est introduit dans le test effectué sur kératinocytes comme référence positive.
(§4) Les résultats sont exprimés en pourcentage de variation de la synthèse des glycosaminoglycanes par rapport au témoin.
(§5) On a effectué 3 essais pour le composé testé.
(§6) Les comparaisons des résultats obtenus pour un composé testé ont été réalisés à l'aide du test de Student.
(§7) L'écart type de la moyenne (esm) a été calculé selon la relation suivante : esm = écart type/((n))^(1/2) [formula] • n étant le nombre d'essais effectués.
(§8) Les valeurs mesurées sont données en coups par minute (cpm) • n : nombre d'essais effectués • p : intervalle de confiance • esm : écart type de la moyenne

[2] = test system: fibroblastes dermiques humains normaux; assay: Synthesis of sulfated glycosaminoglycans (radioactive label incorporation) in fibroblast cultures; conditions: for augmenter la synthèse des GAGs sulfatés: summary in words of the results on fibroblasts and keratinocytes
From the text: as §1
Les cultures de fibroblastes sont effectuées selon les méthodes classiques de culture cellulaire, à savoir en milieu DMEM vendu par la société Gibco, en présence de L-glutamine (2 mM), de pénicilline (50 Ul/ml) et de 10% de sérum de veau foetal (Gibco).
as §2, §3, §4, §5, §6, §7, §8

[3] = test system: fibroblastes dermiques humains normaux; assay: as above; conditions: fibroblasts, second experiment, n=2; for activity at 100 µM / activity at 1000 µM: Fibroblast, control = 100, read-out: % (synthèse des glycosaminoglycanes par rapport au témoin)
kératinocytes [4] = assay: Synthesis of sulfated glycosaminoglycans (radioactive label incorporation) in keratinocyte cultures; conditions: keratinocytes, second experiment, n=2
[5] = Keratinocyte, 0,1 mM, control = 100, read-out: % (synthèse des glycosaminoglycanes par rapport au témoin)
[6] = Keratinocyte, 1 mM, control = 100, read-out: % (synthèse des glycosaminoglycanes par rapport au témoin)

Structure (SMILES) | augmenter la synthèse des GAGs sulfatés [2] | activity at 100 µM ([3]; 0,1 mM) [%] | activity at 1000 µM ([3]; 1 mM) [%] | Valeur moyenne ([3]; 0,1 mM) [cpm] | Valeur moyenne ([3]; 1 mM) [cpm] | activity at 100 µM (kératinocytes [4]; [5]) [%] | activity at 1000 µM (kératinocytes [4]; [6]) [%] | Valeur moyenne (kératinocytes [4]; 0,1 mM) [cpm] | Valeur moyenne (kératinocytes [4]; 1 mM) [cpm] | also measured
[Ca+2].[Cl-].[Cl-] [CaCl2, reference compound] | – | – | – | – | – | – | – | – | – | % (synthèse des glycosaminoglycanes par rapport au témoin) (kératinocytes [1]; positive control CaCl2 at 1,4 mM, control = 100, 1400 µM): 117%; Valeur moyenne (kératinocytes [1]; positive control CaCl2 at 1,4 mM): 5273 cpm
CCOC(=O)C(Cc1ccccc1)NC(C)CC1OCC(O)C(O)C1O [Composé de l'exemple 5, chlorhydratede l'ester éthyliquede l'acide 2R-[1-méthyl 2-(C-β-D-xylopyranoside) éthyl]-amino 3-phényl propanoïque] | très efficaces | – | – | – | – | – | – | – | – | activity at 370 µM ([2]; Fibroblast, fibroblasts, 0,37 mM, control = 100, n=3, read-out: % (synthèse des glycosaminoglycanes par rapport au témoin)): 616%; activity at 1110 µM ([2]; Fibroblast, fibroblasts, 1,11 mM, control = 100, n=3, read-out: % (synthèse des glycosaminoglycanes par rapport au témoin)): 605%; Valeur moyenne ([2]; fibroblasts, 0,37 mM, n=3): 14373 cpm; Valeur moyenne ([2]; fibroblasts, 1,11 mM, n=3): 14111 cpm; activity at 66 µM (kératinocytes [1]; Keratinocyte, 66 µM, control = 100, read-out: % (synthèse des glycosaminoglycanes par rapport au témoin)): 438%; activity at 200 µM (kératinocytes [1]; Keratinocyte, 200 µM, control = 100, read-out: % (synthèse des glycosaminoglycanes par rapport au témoin)): 570%; Valeur moyenne (kératinocytes [1]; 66 µM): 21975 cpm; Valeur moyenne (kératinocytes [1]; 200 µM): 29007 cpm
CC(C[C@@H]1OC[C@@H](O)[C@H](O)[C@H]1O)NCCCO (stereo partly drawn) [1-[2-(3-hydroxy-propylamino)-propyl]-C-β-D-xylopyranose] | – | 113 | 121 | 2856 | 3039 | 99 | 145 | 12660 | 18691 | –
CCCCCCNC(C)C[C@@H]1OC[C@@H](O)[C@H](O)[C@H]1O (some centres unmarked) [Composé de l'exemple 10] | très efficaces | 553 | 595 | 13925 | 14992 | 427 | 255 | 54897 | 32733 | –
CNC(C)C[C@@H]1OC[C@@H](O)[C@H](O)[C@H]1O (stereo partly drawn) [1-[2-(méthylamino)-propyl]-C-β-D-xylopyranose] | – | 102 | 106 | 2569 | 2659 | 93 | 139 | 11922 | 17916 | –
CCCNC(C)C[C@@H]1OC[C@@H](O)[C@H](O)[C@H]1O (some centres unmarked) [Composé de l'exemple 11] | très efficaces | 127 | 441 | 3197 | 11109 | – | – | – | – | activity at 0.1 µM (kératinocytes [4]; Keratinocyte, 0,1 µM, control = 100, read-out: % (synthèse des glycosaminoglycanes par rapport au témoin)): 112%; activity at 1 µM (kératinocytes [4]; Keratinocyte, 1 µM, control = 100, read-out: % (synthèse des glycosaminoglycanes par rapport au témoin)): 351%; Valeur moyenne (kératinocytes [4]; 0,1 µM): 14408 cpm; Valeur moyenne (kératinocytes [4]; 1 µM): 45124 cpm
CC(N)C[C@@H]1OC[C@@H](O)[C@H](O)[C@H]1O (stereo partly drawn) [1-[2-amino-propyl]-C-β-D-xylopyranose] | – | 91 | 139 | 2301 | 3507 | 113 | 225 | 14465 | 28870 | –
